According to patent US20130085133A1, “ANTI-VIRAL TREATMENT AND ASSAY TO SCREENFOR ANTI-VIRAL AGENT” (Sourthern Research Institute Office of Commercialization …, priority 2010, published 2013):
In brackets after ≈: the same amount, converted by molar mass.

Experiments:
[1] = test system: respiratory syncytial virus (RSV) strain Long; test: microbe, parasite or virus in culture; conditions: human respiratory syncytial virus, HEp-2, 144 h
[2] = cytotoxicity assay (percent viability of HEp-2 cells, Cell Titer-Glo); conditions: human, HEp-2 cells
Experimental: Test compounds were evaluated by measuring their antiviral activity, cell toxicity, and selectivity. Test compounds were serially diluted in a plate to plate matrix or “stacked plate” matrix. All 320 compounds in a source plate were diluted together resulting in a 10 point dose response dilution series. It was visualized as a serial dilution series proceeding vertically through a stack of plates with the high dose plate on top and the low dose plate on the bottom.
Following the six day incubation period, the assay plates were equilibrated to room temperature for 30 min and an equal volume (30 μL) of Cell Titer-Glo reagent (Promega Inc.) was added to each well using a WellMate (Matrix, Hudson, N.H.) and plates were incubated for an additional 10 min at room temperature. At the end of the incubation, luminescence was measured using a Perkin Elmer Envision™ multi-label reader (PerkinElmer, Wellesley, Mass.) with an integration time of 0.1 s.
Data was analyzed using ActivityBase software (IDBS, Inc, Guilford, UK). thirty two control wells containing cells only and twenty four wells containing cells and virus were included on each assay plate and used to calculate Z′ value for each plate and to normalize the data on a per plate basis. […] Eight ribavirin positive control wells were included on each plate for quality control purposes, but were not used in Z′ calculations. […] In the toxicity assay, results are described as percent viability and the calculation is the same.
An EC50 (for CPE inhibition) and IC50 (for cell viability) were calculated for each substance using the 4 parameter Levenburg-Marquardt algorithm with parameter A locked at 0 and parameter B locked at 100. Standard deviation, normalized chi2 and hill slope were used to evaluate the curves. Values were not extrapolated beyond the tested range of concentrations.

RSV, Long strain = test: virus titer Reduction (VTR) assay, progeny virus TCID50 in HEp-2 cells; format: cell-based, respiratory syncytial virus (RSV); conditions: human respiratory syncytial virus, 48 h; for log reduction at 3 µg/mL: 3 ug/ml compound, read-out: TCID-50 Reduction @ 3 ug/ml; for log reduction at 5 µg/mL: 5 ug/ml compound, read-out: TCID-50 Reduction @ 5 ug/ml; for log reduction at 12 µg/mL: 12 ug/ml compound, read-out: TCID-50 Reduction 12 @ ug/ml; for log reduction at 25 µg/mL: 25 ug/ml compound, read-out: TCID-50 Reduction 25 @ ug/ml; for log reduction at 6 µg/mL: 6 ug/ml compound, read-out: TCID-50 Reduction 6 @ ug/ml
Experimental: Four concentrations of each compound were evaluated (Table 3). Briefly, the four concentrations of test compounds, HEp-2 cells (8×10^3 per well) and RSV, Long strain (MOI=0.9) were plated in 96 well microtiter plates. The plates were incubated for 48 hours. Fifteen (15) μl of 10-fold serial dilution of progeny virus containing medium from respective samples (test compound treated or untreated) was transferred to infect fresh HEp-2 cells (2×10^3 cells per well) in a 384 well format. Plates were incubated for an additional 6 days and luminescence was measured using Cell Titer-Glo reagent (Promega Inc.) to determine cell viability. […] A well showing lesser than 50% cell viability was regarded as positive for virus infection. Four replicates for each virus dilution were analyzed and the number of virus positive wells (out of 4) was plotted versus the dilution. TCID50 was calculated to be the dilution that produced two positive wells out of four using ActivityBase software (IDBS, Inc, Guilford, UK).

| SMILES | EC50 [1] | CC50 at 6 days [2] | log reduction at 3 µg/mL (RSV, Long strain) | log reduction at 5 µg/mL (RSV, Long strain) | log reduction at 12 µg/mL (RSV, Long strain) | log reduction at 25 µg/mL (RSV, Long strain) | log reduction at 6 µg/mL (RSV, Long strain) |
| --- | --- | --- | --- | --- | --- | --- | --- |
| CC(=O)N(CCCCN1C(=O)c2ccccc2C1=O)c1ccc(C)cc1 [AB00300194] | 9.01 µg/mL (≈ 25.7 µM) | > 25 µg/mL | 1.41 | 1.83 | 2.04 | 2.56 | – |
| Cc1ccc(N(CCCCN2C(=O)c3ccccc3C2=O)C(=O)c2cccc([N+](=O)[O-])c2)cc1 [AB00301184] | 2.53 µg/mL (≈ 5.53 µM) | > 25 µg/mL | 1.53 | – | 1.9 | 1.88 | 1.67 |
| O=C1c2ccccc2C(=O)N1CCCCN(C(=O)c1cccc([N+](=O)[O-])c1)c1ccc(Cl)cc1 [AB00301782] | 2.01 µg/mL (≈ 4.21 µM) | > 25 µg/mL | 1.55 | – | 1.42 | 0.87 | 1.64 |
| O=C1c2ccccc2C(=O)N1CCCCN(C(=O)c1ccco1)c1ccc(Cl)cc1 [AB00302018] | 3.4 µg/mL (≈ 8.04 µM) | > 25 µg/mL | 1.66 | – | 2.68 | 3.07 | 2.64 |
| O=C(NCCSCc1c(F)cccc1Cl)c1cccc([N+](=O)[O-])c1 [AB00306112] | 5.86 µg/mL (≈ 15.9 µM) | > 25 µg/mL | 1.85 | – | 1.68 | 2.88 | 1.38 |
| Cc1sc(NC(=O)c2c(F)cccc2F)nc1-c1ccccc1 [AB00309154] | 6.41 µg/mL (≈ 19.4 µM) | > 25 µg/mL | 1.54 | – | 1.42 | 1.88 | 1.38 |
| Cc1ccc(-c2csc(N)c2C(N)=O)cc1C [AB00310739] | 6.31 µg/mL (≈ 25.6 µM) | > 25 µg/mL | 1.03 | – | 1.9 | 2.39 | 1.86 |
| COC(=O)c1c(-c2ccccc2)csc1NC(=O)c1ccccc1Cl [AB00311298] | 7.72 µg/mL (≈ 20.8 µM) | > 25 µg/mL | 1.53 | – | 1.9 | 1.88 | 1.86 |
| O=C(c1cc(Cl)ccc1Cl)N1CCCN(C(=O)c2cc(Cl)ccc2Cl)CC1 [AB00311948] | 2.32 µg/mL (≈ 5.2 µM) | > 25 µg/mL | 3.13 | 4.64 | 5.56 | 5.9 | – |
| Cc1ccccc1C(=O)N1CCCN(C(=O)c2ccccc2C)CC1 [AB00312102] | 3.71 µg/mL (≈ 11 µM) | > 25 µg/mL | 1.53 | – | 2.68 | 2.39 | 1.86 |
| O=C(Cc1cccs1)Nc1nc2c(s1)CCCC2 [AB00313042] | 1.89 µg/mL (≈ 6.79 µM) | > 25 µg/mL | 3.56 | – | 5.43 | 6.4 | 5.24 |
| Cc1ccc(S(=O)(=O)Nc2ccc(NC(=O)c3c(F)c(F)c(F)c(F)c3F)cc2)cc1 [AB00314111] | 6.97 µg/mL (≈ 15.3 µM) | > 25 µg/mL | 1 | – | 1.41 | 3.05 | 1.01 |
| COC(=O)C1=C(C)N(Cc2ccccc2)C(=O)NC1c1ccc(OC)c(OC)c1 (stereo not drawn) [AB00318114] | 3.37 µg/mL (≈ 8.5 µM) | > 25 µg/mL | 2.42 | 4.69 | 5.56 | 5.9 | – |
| COCc1cc(C)nc(SCC(=O)Nc2ccccc2C(=O)c2ccccc2)c1C#N [AB00341850] | 2.19 µg/mL (≈ 5.08 µM) | > 25 µg/mL | 1 | – | 2.41 | 2.23 | 2.3 |
| COCc1cc(C)nc(SCC(=O)Nc2ccccc2N2CCOCC2)c1C#N [AB00345103] | 2.18 µg/mL (≈ 5.28 µM) | > 25 µg/mL | 1 | – | 3.2 | 2.86 | 1.31 |
| Cc1cc(C)cc(C(=O)Nc2cccc(NC(=O)c3ccccc3C)c2)c1 [AB00353228] | 9.78 µg/mL (≈ 27.3 µM) | > 25 µg/mL | 1.55 | – | 3.42 | 3.43 | 2.87 |
| Oc1ccc(Nc2nc(-c3ccc(O)cc3)cs2)cc1 [AB00355020] | 2.77 µg/mL (≈ 9.74 µM) | > 25 µg/mL | 1 | – | 2.2 | 2.55 | 1.01 |
| Cc1ccn2cc(-c3cccc(NS(=O)(=O)c4ccccc4)c3)nc2c1 [AB00356285] | 4.04 µg/mL (≈ 11.1 µM) | > 25 µg/mL | 1.14 | – | 2.42 | 3.78 | 1.38 |
| CCOC(=O)Cc1ccc(NC(=O)c2cc(SC)ccc2Cl)cc1 [AB00359299] | 6.76 µg/mL (≈ 18.6 µM) | > 25 µg/mL | 1 | – | 1.99 | 2.83 | 1.22 |
| O=C(Nc1cccc(NC(=O)C23CC4CC(CC(C4)C2)C3)c1)c1ccccc1F [AB00359685] | 9.42 µg/mL (≈ 24 µM) | > 25 µg/mL | 1 | – | 4.4 | 4.94 | 2.13 |
| O=C(Cc1c(F)cccc1Cl)Nc1nc2c(s1)CCCC2 [AB00361531] | 0.83 µg/mL (≈ 2.56 µM) | > 25 µg/mL | 1.55 | – | 3.09 | 3.78 | 1.74 |
| COc1ccc(CNCCC(c2ccc(F)cc2)c2ccco2)cc1OC (stereo not drawn) [AB00362846] | 4.47 µg/mL (≈ 12.1 µM) | > 25 µg/mL | 1 | – | 2.82 | 5.48 | 1.92 |
| COc1ccccc1CCNC(=O)c1cc2c(s1)CCCC2 [AB00367930] | 5.77 µg/mL (≈ 18.3 µM) | > 25 µg/mL | 1.82 | – | 2.68 | 6.4 | 1.04 |
| COc1c(C)cccc1C(=O)NCCOc1ccc(Cl)cc1 [AB00368252] | 9.43 µg/mL (≈ 29.5 µM) | > 25 µg/mL | 1 | – | 1.72 | 4.94 | 1.3 |
| O=C(Cc1ccc(Br)cc1)Nc1ccccc1C(=O)O [AB00369287] | 9.56 µg/mL (≈ 28.6 µM) | > 25 µg/mL | 1 | – | 4.73 | 6.57 | 3.31 |
